According to the OligoGym collection:
After the bases stand the sugars from the 5' end (letter, count) and the backbone: PS all phosphorothioate, else s phosphorothioate and o phosphodiester by linkage. Methylation of C is not given here. e = 2'-O-(2-methoxyethyl) (MOE); k = constrained ethyl (cEt); d = 2'-deoxy (DNA)

What was measured:
[1] = target: APOL1; conditions: ASO
[2] = target: SOD1; conditions: ASO

## GAGTATTGTTTTTGTG (sugars kkddddkekekkdddd, PS)
[1]; A431, 2 µM
  target mRNA inhibition: 85%

## TTCTATTAGAGGGCTA (sugars k3 d4 k3 e1 d5, PS)
[1]; A431, 2 µM
  target mRNA inhibition: 85%

## AACGCAATGCTGACTT (sugars k2 d4 e3 k2 d5, PS)
[1]; A431, 2 µM
  target mRNA inhibition: 82%

## TAATTCTATTAGAGGG (sugars k4 d9 k3, PS)
[1]; A431, 0.0625 µM
  target mRNA inhibition: 17%
[1]; A431, 0.25 µM
  target mRNA inhibition: 45%
[1]; A431, 1 µM
  target mRNA inhibition: 69%

## GAATTATGGAATTGCA (sugars k3 d4 k3 e1 d5, PS)
[1]; A431, 2 µM
  target mRNA inhibition: 90%

## AGTATTGCCAGCTAAG (sugars k4 d9 k3, PS)
[1]; A431, 0.0625 µM
  target mRNA inhibition: 63%
[1]; A431, 0.25 µM
  target mRNA inhibition: 89%
[1]; A431, 1 µM
  target mRNA inhibition: 97%

## ATTTCTTGATGTGGTG (sugars kdddddkekekddddd, PS)
[1]; A431, 0.0156 µM
  target mRNA inhibition: 22%
[1]; A431, 0.0625 µM
  target mRNA inhibition: 50%
[1]; A431, 0.25 µM
  target mRNA inhibition: 80%
[1]; A431, 1 µM
  target mRNA inhibition: 91%
[1]; A431, 2 µM
  target mRNA inhibition: 96%

## ATGCTAATTTTCTGAC (sugars kkkddddkekekdddd, PS)
[1]; A431, 0.0156 µM
  target mRNA inhibition: 26%
[1]; A431, 0.0625 µM
  target mRNA inhibition: 46%
[1]; A431, 0.25 µM
  target mRNA inhibition: 68%
[1]; A431, 1 µM
  target mRNA inhibition: 88%
[1]; A431, 2 µM
  target mRNA inhibition: 95%

## GTTTTGTAAGTGCAAC (sugars kkkddddkekekdddd, PS)
[1]; A431, 2 µM
  target mRNA inhibition: 59%

## TTCTATTAGAGGGCTA (sugars kkkddddkdkdkdddd, PS)
[1]; A431, 2 µM
  target mRNA inhibition: 78%

## TTCTATTAGAGGGCTA (sugars kkdddddkekeddddd, PS)
[1]; A431, 0.0156 µM
  target mRNA inhibition: 26%
[1]; A431, 0.0625 µM
  target mRNA inhibition: 56%
[1]; A431, 0.25 µM
  target mRNA inhibition: 81%
[1]; A431, 1 µM
  target mRNA inhibition: 92%
[1]; A431, 2 µM
  target mRNA inhibition: 94%

## TGTTATATTTGATCCT (sugars k3 d4 k3 e1 d5, PS)
[1]; A431, 2 µM
  target mRNA inhibition: 89%

## TTATGAAATTATTGGT (sugars kkddddkekekddddd, PS)
[1]; A431, 2 µM
  target mRNA inhibition: 82%

## TTCTATTAGAGGGCTA (sugars k2 d4 e3 k2 d5, PS)
[1]; A431, 2 µM
  target mRNA inhibition: 87%

## AGTATTGCCAGCTAAG (sugars kkddddkekekddddd, PS)
[1]; A431, 2 µM
  target mRNA inhibition: 65%

## GAAGATTGGCTCTGGC (sugars kkkddddkdkdkdddd, PS)
[1]; A431, 2 µM
  target mRNA inhibition: 51%

## GGTTATGAAATTATTG (sugars kkkddddkekeddddd, PS)
[1]; A431, 2 µM
  target mRNA inhibition: 88%

## CGTGTTATATTTGATC (sugars k2 d4 e3 k2 d5, PS)
[1]; A431, 2 µM
  target mRNA inhibition: 74%

## GTTCTAACTCTTGGGC (sugars kkddddekekeddddd, PS)
[1]; A431, 2 µM
  target mRNA inhibition: 78%

## TTTAAACTCAGGTGAC (sugars kkddddkekekkdddd, PS)
[1]; A431, 2 µM
  target mRNA inhibition: 16%

## TTATACCAGTGTCTTC (sugars kddddkekekeddddd, PS)
[1]; A431, 2 µM
  target mRNA inhibition: 82%

## GTTGTCCAGAGCTTTA (sugars k4 d9 k3, PS)
[1]; A431, 0.0625 µM
  target mRNA inhibition: 56%
[1]; A431, 0.25 µM
  target mRNA inhibition: 72%
[1]; A431, 1 µM
  target mRNA inhibition: 79%

## GGTAAGAGCGATGGGA (sugars k3 d10 k3, PS)
[1]; A431, 0.0625 µM
  target mRNA inhibition: 79%
[1]; A431, 0.25 µM
  target mRNA inhibition: 93%
[1]; A431, 1 µM
  target mRNA inhibition: 97%

## TTAAGTCTGGCAAAATA (sugars e3 k2 d7 k2 e3, PS)
[2]; HepG2, 3 µM
  target mRNA inhibition: 2%

## TTACACCACAAGCCAAACGA (sugars e5 d10 e5, PS)
[2]; HepG2, 5 µM
  target mRNA inhibition: 24%

## CACGCCGAGGTCCTGGTTCC (sugars e5 d10 e5, PS)
[2]; HepG2, 4 µM
  target mRNA inhibition: 23%

## AGGATACATTTCTACAG (sugars e2 k2 d9 k2 e2, PS)
[2]; HepG2, 0.1875 µM
  target mRNA inhibition: 9%
[2]; HepG2, 0.75 µM
  target mRNA inhibition: 52%
[2]; HepG2, 3 µM
  target mRNA inhibition: 81%
[2]; HepG2, 4 µM
  target mRNA inhibition: 77%
[2]; HepG2, 12 µM
  target mRNA inhibition: 95%

## CAAAATACAGGTCATTG (sugars e2 k2 d8 k2 e3, PS)
[2]; HepG2, 5 µM
  target mRNA inhibition: 44%

## CTGGATAGAGGATTAAA (sugars e3 k2 d7 k2 e3, PS)
[2]; HepG2, 3 µM
  target mRNA inhibition: 26%
